In ChEMBL document CHEMBL1136173, “Synthesis and nicotinic binding of novel phenyl derivatives of UB-165. Identifying factors associated with alpha7 selectivity” (Bioorg Med Chem Lett, 2003):
pKi: −log10 of the molar value.

Columns and labels:
[1] = molecular target: Neuronal acetylcholine receptor subunit alpha-7 (Rattus norvegicus, UniProt Q05941); test: Binding affinity towards Nicotinic acetylcholine receptor alpha-7 using [3H]-MLA as radioligand
[2] = molecular target: Neuronal acetylcholine receptor; alpha4/beta2 (Rattus norvegicus, UniProt P09483+P12390); test: Binding affinity towards Nicotinic acetylcholine receptor alpha4-beta2 using [3H]nicotine as radioligand; assay type: protein-complex assay
Chain of Neuronal acetylcholine receptor; alpha4/beta2 (P09483 whole entry): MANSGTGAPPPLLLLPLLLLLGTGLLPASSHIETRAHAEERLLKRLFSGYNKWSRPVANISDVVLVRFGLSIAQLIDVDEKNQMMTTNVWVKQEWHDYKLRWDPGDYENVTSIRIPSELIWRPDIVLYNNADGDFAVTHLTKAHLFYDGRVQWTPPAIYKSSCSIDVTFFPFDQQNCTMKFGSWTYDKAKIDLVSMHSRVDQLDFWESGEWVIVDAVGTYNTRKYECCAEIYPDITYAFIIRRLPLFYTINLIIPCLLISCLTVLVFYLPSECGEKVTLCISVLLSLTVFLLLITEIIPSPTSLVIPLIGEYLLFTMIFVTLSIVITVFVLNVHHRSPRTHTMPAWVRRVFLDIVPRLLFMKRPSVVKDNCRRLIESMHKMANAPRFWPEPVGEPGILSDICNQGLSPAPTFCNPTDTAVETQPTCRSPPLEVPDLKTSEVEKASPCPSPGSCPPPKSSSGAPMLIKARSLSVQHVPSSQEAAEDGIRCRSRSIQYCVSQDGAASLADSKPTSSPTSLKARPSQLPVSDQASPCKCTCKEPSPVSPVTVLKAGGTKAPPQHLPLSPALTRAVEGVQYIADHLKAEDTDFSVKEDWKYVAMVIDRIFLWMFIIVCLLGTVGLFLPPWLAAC
Chain of Neuronal acetylcholine receptor; alpha4/beta2 (P12390 whole entry): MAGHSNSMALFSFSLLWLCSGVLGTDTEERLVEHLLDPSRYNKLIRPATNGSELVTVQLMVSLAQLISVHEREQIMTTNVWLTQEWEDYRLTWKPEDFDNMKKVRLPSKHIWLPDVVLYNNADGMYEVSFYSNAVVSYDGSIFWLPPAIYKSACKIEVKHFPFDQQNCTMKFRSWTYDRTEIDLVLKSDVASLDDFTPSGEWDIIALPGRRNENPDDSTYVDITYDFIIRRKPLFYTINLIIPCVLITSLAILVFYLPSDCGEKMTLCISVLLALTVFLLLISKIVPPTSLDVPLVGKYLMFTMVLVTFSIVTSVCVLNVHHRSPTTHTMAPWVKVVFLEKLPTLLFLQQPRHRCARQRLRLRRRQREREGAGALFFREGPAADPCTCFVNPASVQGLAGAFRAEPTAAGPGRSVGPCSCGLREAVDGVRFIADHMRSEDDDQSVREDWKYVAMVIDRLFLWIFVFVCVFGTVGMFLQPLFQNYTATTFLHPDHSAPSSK

[3] = molecular target: Neuronal acetylcholine receptor alpha3/beta4 (Homo sapiens); test: Binding affinity towards alpha3-beta4 subtype of neuronal nicotinic acetylcholine receptor (nAChR) using [3H]epibatidine as radioligand

Chain of Neuronal acetylcholine receptor subunit alpha-7 (Q05941 whole entry): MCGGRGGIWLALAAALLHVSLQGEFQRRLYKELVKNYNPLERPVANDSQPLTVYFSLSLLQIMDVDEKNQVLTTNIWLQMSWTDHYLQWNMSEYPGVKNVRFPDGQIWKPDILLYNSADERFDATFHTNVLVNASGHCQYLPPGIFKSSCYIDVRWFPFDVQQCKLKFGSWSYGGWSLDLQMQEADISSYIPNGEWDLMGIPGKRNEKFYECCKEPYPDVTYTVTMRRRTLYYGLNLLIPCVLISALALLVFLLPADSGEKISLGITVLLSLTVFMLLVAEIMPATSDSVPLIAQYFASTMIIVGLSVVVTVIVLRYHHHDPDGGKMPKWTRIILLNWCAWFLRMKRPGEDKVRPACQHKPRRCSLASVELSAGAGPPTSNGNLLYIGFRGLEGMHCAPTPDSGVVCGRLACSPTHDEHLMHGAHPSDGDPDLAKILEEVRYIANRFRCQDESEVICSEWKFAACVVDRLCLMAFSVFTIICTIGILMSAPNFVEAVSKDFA

Clc1ccc(C2=CCC[C@@H]3CC[C@H]2N3)cn1
pKi [1]: 5.56

C1=C(c2ccc(-c3ccccc3)nc2)C2CCC(CC1)N2 (centres undefined)
pKi [1]: 5.88
pKi [2]: 7.67

C1=C(c2cccnc2-c2ccccc2)C2CCC(CC1)N2 (centres undefined)
pKi [1]: < 4.30
pKi [3]: < 4.30
pKi [2]: < 4.30

C1=C(c2cccnc2)C2CCC(CC1)N2 (centres undefined)
pKi [1]: 7.05
pKi [2]: 9.37

C1=C(c2cnccc2-c2ccccc2)C2CCC(CC1)N2 (centres undefined)
pKi [1]: 6.03
pKi [3]: 5.70
pKi [2]: 6.63

C1=C(c2cncc(-c3ccccc3)c2)C2CCC(CC1)N2 (centres undefined)
pKi [1]: 4.80
pKi [3]: 6.33
pKi [2]: 8.32
